Converted amounts (≈) assume the structure as drawn. Read-outs that look alike come from different tables or passages of the source. Each block holds one compound with its values, some of them ahead of it.
Key:
[1] = test system: HIV; conditions: cited from earlier work
[2] = molecular target: almond β-glucosidase; experiment: Beta-glucosidase inhibition assay, pH 4.8; format: biochemical; conditions: for IC50: read-out: Enzyme Inhibition-IC50, Almond β-Glucosidase pH 4.8
Procedure: (§1) Yeast alpha-glucosidase and almond beta-glucosidase activities were measured by a modification of the method of Evans, et al., Phytochemistry 22, 768-770 (1983). The modifications included 1) assay of activities at pH 7.4 in HEPES (N-2-hydroxyethylpiperazine-N'-2-ethanesulfonic acid) buffer, 2) measurement in 96 well microtiter plates and 3) inclusion of 10% DMSO in control and test samples.
(§2) The release of p-nitrophenol from the substrate p-nitrophenylglycoside was measured spectrophotometrically in the presence and absence of test compound. Each assay included a known inhibitor of the enzyme as a standard.
To 100 μl 50 mM sodium citrate buffer, pH 4.8, in a microtiter plate, add 15 μl test compound in DMSO (DMSO alone in control), 20 μl (0.017 units) beta-glucosidase (Sigma) in citrate buffer and pre-incubate at room temperature for 15 minutes. Add 25 μl 2.50 mM p-nitrophenyl-beta-D-glucopyranside in citrate buffer, as substrate. […] Add 50 μl 0.4M NaOH. Read absorption change at 405 nm in a Biotek EIA Autoreader. Each sample was tested in triplicate. […] Castanospermine was used as standard inhibitor.

[3] = molecular target: T1, yeast α-glucosidase (Saccharomyces cerevisiae, UniProt P53341); experiment: Alpha-glucosidase inhibition assay, pH 7.4; format: biochemical
T1 construct: purchased Sigma
Procedure: as §1, §2
To 100 μl 50 mM HEPES buffer, pH 7.4, in a microtiter plate, add 20 μl test compound in DMSO (DMSO alone in control), 40 μl (0.013 units) yeast alpha-glucosidase (Sigma) in HEPES buffer and pre-incubate at room temperature for 15 minutes. Add 40 μl 1.25 mM p-nitrophenyl-alpha-D-glucopyranoside (Sigma) in HEPES buffer, as substrate, and monitor absorbance change at 405 nm in Biotek EIA Auto-reader. Absorption change was measured at 15 to 25 minutes (reaction was linear for at least 30 minutes). Each sample was tested in triplicate. […] Deoxynojirimycin was used as standard inhibitor.

[4] = molecular target: almond β-glucosidase; experiment: Beta-glucosidase inhibition assay, pH 7.4; format: biochemical; conditions: for IC50 / Enzyme Inhibition, Almond β-Glucosidase pH 7.4: pH 7.4; for IC50: read-out: Enzyme Inhibition-IC50, Almond β-Glucosidase pH 7.4; for Inhibition Index (first, head is drawing 3) / Inhibition Index (second, head is drawing 4): ratio of IC50 values; for Inhibition Index (first, head is drawing 3): numerically almond pH 4.8 / almond pH 7.4; for Inhibition Index (second, head is drawing 4): numerically yeast α pH 7.4 / almond β pH 7.4
Procedure: as §1, §2
To 100 μl 50 mM HEPES buffer, pH 7.4, in a microtiter plate, add 20 μl test compound in DMSO (DMSO alone in control), 40 μl (0.136 units) beta-glucosidase (Sigma) in HEPES buffer and pre-incubate at room temperature for 15 minutes. Add 40 μl 1.25 mM p-nitrophenyl-beta-D-glucopyranoside in HEPES buffer, as substrate and monitor absorbance change at 405 nm in a Biotek EIA Autoreader. Absorption change was measured at 15 to 25 minutes (reaction is linear for at least 30 minutes). Each sample was tested in triplicate. […] Castanospermine was used as standard inhibitor.

[5] = test system: visna virus; experiment: Plaque reduction assay, inhibition of visna virus in vitro; format: cell-based; conditions: Visna-maedi virus, read-out: Antiviral Activity (plaque reduction)
Procedure: (§3) Sheep choroid plexus(SCP) cells were obtained from American Type Culture Collection (ATCC) catalogue number CRL 1700 and were routinely passaged in vitro in Dulbecco's Modified Eagles (DME) medium supplemented with 20% fetal bovine serum (FBS). SCP cells were passaged once per week at a 1:2 or 1:3 split ratio. Visna was titrated by plaque assay in six-well plates. Virus pools were stored at -70° C.
(§4) SCP cells were cultured in 6-well plates to confluence. Wells were washed two times with serum free Minimal Essential Medium (MEM) to remove FBS. 0.2 ml of virus was added per well in MEM supplemented with 4 mM glutamine and gentamycin. After 1 hour adsorption, the virus was aspirated from each well. The appropriate concentration of each compound in 5 ml of Medium 199 (M-199) supplemented with 2% lamb serum, 4 mM glutamine, 0.5% agarose and gentamycin was added to each well. […] To terminate the test: cultures were fixed in 10% formalin, the agar removed, the monolayers stained with 1% crystal violet and plaques counted. Each compound concentration was run in triplicate. […] 0 is no toxicity observed while 4 is total lysing of the cell monolayer.

[6] = test system: Sheep choroid plexus (SCP) cells; experiment: Toxicity in control wells (without virus) of the plaque reduction assay; format: cell-based; parameters: key: 0: no toxicity; 4: total cell lysates; conditions: graded 0 to 4
Procedure: as §3, §4
Toxicity graded on 0 to 4 scale 0 = no toxicity, 4 = total cell lysates

[7] = molecular target: glucosidase I; conditions: Schweden et al.; compared to N-methyl- and N-butyl-derivatives; cited from earlier work
[8] = test system: HIV-1, strain HTLV-IIIB; experiment: Reduction of cytopathogenic effect (CPE) in HIV-1 infected CEM cells, MTT assay; format: cell-based
Procedure: These tests involved plating of susceptible human host cells which are syncytium-sensitive with and without virus in microculture plates, adding various concentrations of the test compound, incubating the plates for 9 days (during which time infected, non-drug treated control cells are largely or totally destroyed by the virus), and then determining the number of remaining viable cells using a colorimetric endpoint.
Tissue culture plates were incubated at 37° C. in a humidified, 5% CO2 atmosphere and observed microscopically for toxicity and/or cytopathogenic effect (CPE). At 2 and 6 days after infection, fresh dilutions of each test article were prepared from the frozen stock, and a 20 μl volume of each dilution (prepared as a 10× concentration was added to the appropriate wells of both infected and uninfected cells.
On the 9th day post-infection, the cells in each well were resuspended and a 100 μl sample of each cell suspension was removed for use in an MTT assay. A 20 μl volume of a 5 mg/ml solution of 3-(4,5-dimethylthiazol-2-yl)-2,5-diphenyltetrazolium bromide (MTT) was added to each 100 μl cell suspension, and the cells were incubated at 37° C. in 5% CO2 for 4 hours. […] A 100 μl volume of a solution of 10% sodium dodecyl sulfate in 0.01N hydrochloric acid wa added to each sample, and the samples were incubated overnight. The absorbance at 590 nm was determined for each sample using a Molecular Devices Vmax microplate reader. This assay detects drug-induced suppression of viral CPE, as well as drug cytotoxicity, by measuring the generation of MTT-formazan by surviving cells.
Assays were done in 96-well tissue culture plates. CEM cells were treated with polybrene at a concentration of 2 μg/ml, and an 80 μl volume of cells (1×10^4 cells) was dispensed into each well. A 100 μl volume of each test article dilution (prepared as a 2× concentration) was added to 5 wells of cells, and the cells were incubated at 37° C. for 1 hour. A frozen culture of HIV-1, strain HTLV-IIIB, was diluted in culture medium to a concentration of 5×10^4 TCID50 per ml, and a 20 μl volume (containing 10^3 TCID50 of virus) was added to 3 of the wells for each test article concentration. […] A 20 μl volume of normal culture medium was added to the remaining wells to allow evaluation of cytotoxicity. Each plate contained 6 wells of untreated, uninfected, cell control samples and 6 wells of untreated, infected, virus control samples. Dideoxycytidine (DDC) and dideoxyadenosine (DDA) were included as positive control compounds.

T1 sequence (P53341 whole entry): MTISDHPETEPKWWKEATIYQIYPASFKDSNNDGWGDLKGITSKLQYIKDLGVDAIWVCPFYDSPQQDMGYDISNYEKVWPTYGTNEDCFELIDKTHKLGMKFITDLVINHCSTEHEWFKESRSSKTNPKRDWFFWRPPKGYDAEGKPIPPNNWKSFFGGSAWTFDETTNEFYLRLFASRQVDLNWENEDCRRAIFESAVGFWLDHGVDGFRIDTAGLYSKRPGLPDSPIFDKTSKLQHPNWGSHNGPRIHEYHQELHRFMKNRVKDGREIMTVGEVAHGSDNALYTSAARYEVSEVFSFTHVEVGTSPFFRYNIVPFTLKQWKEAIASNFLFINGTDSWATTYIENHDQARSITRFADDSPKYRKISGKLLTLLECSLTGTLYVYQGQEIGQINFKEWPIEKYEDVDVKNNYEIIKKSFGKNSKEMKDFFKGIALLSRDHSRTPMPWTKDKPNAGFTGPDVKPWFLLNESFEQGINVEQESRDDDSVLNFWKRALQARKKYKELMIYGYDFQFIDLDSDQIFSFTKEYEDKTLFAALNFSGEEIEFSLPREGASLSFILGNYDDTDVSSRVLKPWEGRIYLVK

Compound: Cc1cn([C@H]2C[C@H](N=[N+]=[N-])[C@@H](CO)O2)c(=O)[nH]c1=O [AZT, 3'-azido-3'-deoxythymidine]
HIV inhibitory / antiviral activity ([1]; literature): inhibit replication of the virus in vitro

IC50 [2]: 423 µM | IC50 ([3]; pH 7.4, read-out: Enzyme Inhibition-IC50, Yeast α-Glucosidase pH 7.4): 444 µM | IC50 [4]: 15 µM | Inhibition Index (first, head is drawing 3) [4]: 28.2 | Inhibition Index (second, head is drawing 4) [4]: 29.5
Compound: CCCCCN1C[C@H](O)[C@@H](O)[C@H](O)[C@H]1CO [Example 1, 1,5-(Pentylimino)-1,5-dideoxy-D-glucitol]

Compound: CN1C[C@H](O)[C@@H](O)[C@H](O)[C@H]1CO [Methyl, N-methyl-deoxynojirimycin, reference compound]
IC50 [2]: 366 µM | IC50 [3]: 54 µM | HIV inhibitory / antiviral activity ([1]; literature): significant antiviral activity | HIV inhibitory / antiviral activity ([1]; literature, listed as N-methyl derivative of deoxynojirimycin (DNJ)): activity against HIV | IC50 [4]: 102 µM | Inhibition Index (first, head is drawing 3) [4]: 3.5 | Inhibition Index (second, head is drawing 4) [4]: 0.53

Enzyme Inhibition, Almond β-Glucosidase pH 4.8 ([2]; at 10 μM): 22% | inhibition at 10 µM ([3]; pH 7.4, at 10 μM, read-out: Enzyme Inhibition, Yeast α-Glucosidase pH 7.4): 0% | Enzyme Inhibition, Almond β-Glucosidase pH 7.4 ([4]; at 10 μM): 31%
Compound: CCCCCCCCCCCCCCN1C[C@H](O)[C@@H](O)[C@H](O)[C@H]1CO [Example 4, 1,5-(Tetradecylimino)-1,5-dideoxy-D-glucitol]
inhibition at 10 µM ([5]; 10 μM): 84% | inhibition at 100 µM ([5]; 0.1 mM): 100% | inhibition at 1000 µM ([5]; 1 mM): 100% | Toxicity ([6]; 10 μM): 1 | Toxicity ([6]; 0.1 mM): 4 | Toxicity ([6]; 1 mM): 4

Compound: CCN1C[C@H](O)[C@@H](O)[C@H](O)[C@H]1CO [Ethyl, reference compound]
IC50 [2]: ~1000 µM | inhibition at 1000 µM ([3]; pH 7.4, read-out: Enzyme Inhibition, Yeast α-Glucosidase pH 7.4): 51% | reduction of the yield of infectious HIV ([1]; Karpas et al.): three | Enzyme Inhibition, Almond β-Glucosidase pH 7.4 ([4]; at 1 mM): 67% | Inhibition Index (first, head is drawing 3) [4]: ~ 1 | Inhibition Index (second, head is drawing 4) [4]: ~ 1

Compound: O[C@@H]1[C@@H](O)[C@@H](O)CN2CC[C@@H](O)[C@@H]12 [L-6-epicastanospermine]
HIV inhibitory / antiviral activity ([1]; literature): neither the epimer L-1,6-diepicastanospermine nor the stereoisomer of castanospermine, L-6-epicastanospermine, were found to be inhibitory

Compound: O[C@@H]1[C@@H](O)[C@@H](O)CN2CC[C@H](O)[C@@H]12 [L-1,6-diepicastanospermine]
HIV inhibitory / antiviral activity ([1]; literature): neither the epimer L-1,6-diepicastanospermine nor the stereoisomer of castanospermine, L-6-epicastanospermine, were found to be inhibitory

Compound: CCCCCCCCCCN1C[C@H](O)[C@@H](O)[C@H](O)[C@H]1CO [N-decyl-derivatives, reference compound]
Ki, glucosidase I [7]: greater Ki values than the N-methyl- and N-butyl-derivatives

IC50 ([8]; Human immunodeficiency virus 1, IIIB, CCRF-CEM, 216 h, HIV-1, CEM cells, reduction of CPE, read-out: ID50 (median inhibitory dose)): 0.01 µg/mL (≈ 0.0473 µM)
Compound: Nc1ccn([C@H]2CC[C@@H](CO)O2)c(=O)n1 [DDC, Dideoxycytidine, reference compound]
inhibition at 0.01 µg/mL ([8]; Human immunodeficiency virus 1, IIIB, CCRF-CEM, 216 h, 0.01 μg/ml, read-out: Percent Reduction of CPE): 41.5% | inhibition at 0.032 µg/mL ([8]; Human immunodeficiency virus 1, IIIB, CCRF-CEM, 216 h, 0.032 μg/ml, read-out: Percent Reduction of CPE): 73.9%

Compound: O=c1[nH]cnc2c1ncn2[C@H]1CC[C@@H](CO)O1 [DDI, reference compound]
Percent Reduction of CPE ([8]; 1.0 μg/ml, 12960 min): 28.3% | Percent Reduction of CPE ([8]; 3.2 μg/ml, 12960 min): 49.6% | Percent Reduction of CPE ([8]; 10 μg/ml, 12960 min): 75.6% | ID50 (median inhibitory dose) ([8]; HIV-1, CEM cells, reduction of CPE, 12960 min): 3.0 µg/mL (≈ 12.7 µM)

Compound: O[C@H]1[C@H](O)[C@@H](O)CN2CC[C@H](O)[C@H]12 [castanospermine]
HIV inhibitory / antiviral activity ([1]; literature): inhibition of the cytopathic effect (CPE) | reduction in virion infectivity ([1]; literature): only a modest reduction in virion infectivity

— patent US5030638A, “Method of antiviral enhancement” (priority 1990, dated 1991)
